Assay results: US20060079497A1, “Lavendamycin analogues and methods of synthesizing and using lavendamycin analogues” (Ball State University, priority 2004, published 2006)
Values joined by “and” are separate entries in the source; they are usually repeats but may differ in a detail not shown here. Equal values may be shown once. Read-outs that look alike come from different tables or passages of the source.

Legend:
[1] = Cytotoxicity assay (MTT), normal murine spleen cells stimulated with concanavalin A; format: cell-based; conditions: normal mouse spleen stimulated with concanavalin A inhibited by 50%, read-out: Mean CC50 (Normal Mouse Spleen) ± SEM (no. of expts)
Procedure: (§1) Normal murine spleen cells were washed in HBSS, cultured at 2.5×10^6 or 5×10^6 cells per mL in RPMI 1640 (with Hepes) complete medium with 2 mM-L-glutamine, 1 mM sodium pyruvate, 0.05 mM β-mercaptoethanol, penicillin, streptomycin, and amphotericin B with 10% fetal calf serum and Concanavalin A (ConA) at 2.5 μg/mL in a 96-well microtiter plate. A range of diluted analogs were added to triplicate culture wells and the cells were incubated at 37° C. in 5% CO2. Wells containing cells, media and ConA were used as controls. Forty-eight hours post incubation, 20 μL of the vital dye MTT (3-[4,5-Dimethylthiazol-2-yl]-2,5-diphenyltetrazolium bromide; thiazolyl blue) at 5 mg/mL was added to each well and the cultures re-incubated for 4-6 hours. Following centrifugation, the supernatants were decanted and the stained cells were resuspended in 100 μL of 0.4% HCl acidified isopropanol. The optical densities of each well were read at 600 nm using a Cambridge Technologies series 700 microplate reader. The human lymphocytic cell lines CCRF-CEM (ATCC: HTB 176) and H-9 (ATCC: CCL 119) were subcultured from recently cultured cells grown in complete RPMI 1640 medium as described above but without the β-mercaptoethanol and ConA at 6.25×10^5 and 2×10^6 per mL in a 96 well culture plate. These cell numbers represented log phase and early stationary phase of the freshly cultured cells. As these cell lines rapidly reproduce without mitogenic stimulation, Con A was not used. A range of analogues or media alone was added in triplicate to the cultures and the cultures incubated, pulsed with MTT, harvested and their growth estimated as described above for the murine cultures. The CC50 or the concentration of drug which inhibited cell growth as estimated by MTT formazan production to 50% of that of untreated control cells was determined by linear interpolation for each lavendamycin analog.

[2] = Cytotoxicity assay (MTT), human lymphocytic cell lines, pooled data; format: cell-based; conditions: H-9 and CEM inhibited by 50%, read-out: Mean CC50 (Human Cell Lines) ± SEM (no. of expts)
Procedure: as §1

[3] = molecular target: T1, HIV reverse transcriptase (HIV-RT) (Human immunodeficiency virus type 1 group M subtype B, UniProt P04585); test: HIV-RT assay (3H-TTP incorporation, modified assay of Okada et al.); format: biochemical
T1 construct: 1 unit/mL of HIV-RT (Worthington Biochemical Corp., Freehold, N.J.); purchased Worthington Biochemical Corp., Freehold, N.J
Procedure: Briefly, the analogues were initially dissolved in either DMSO or HEPES buffer (pH 7.2) and then diluted to the appropriate concentration before addition to the assay mixtures. […] Several control wells without any inhibitors were also included on each microtiter plate. The reactions were allowed to proceed for 1 h at 37° C. […] A more detailed description of reaction conditions is provided below in the Examples. The concentration of drug which inhibited 50% of the enzyme activity (IC50) was determined by using the computer software program Calcusyn, which plots the dose-effect curves from the inhibition data and calculates the IC50 for each drug.
The assay procedure described below is adapted from Okada et al. (Okada, H.; Mukai, H.; Inouye, Y; Nakamura, S. “Biological Properties of Streptonigrin Derivatives II. Inhibition of Reverse Transcriptase Activity,” J. Antibiot., 1986, 39, 306-308). The lavendamycin analogs were initially dissolved in DMSO at a concentration of 1 mg/mL. Occasionally, mild sonication and heat were used to dissolve the less soluble compounds. The dissolved analogs were then serially diluted in distilled water to achieve concentrations in the final reaction mixture ranging from 0.5-15 μM. In addition to the lavendamycin analogs, the final reaction mixture contained 100 mM Tris-HCl (pH 8.0), 5 mM MgCl2, 5 mM dithiothreitol, 60 mM NaCl, 0.2 mM [^3H] thymidine triphosphate(5 μCi well), 4 μg/mL poly (rA)-oligo(dT)12-18 (Amersham Pharmacia Biotech, Piscataway, N.J.) and 1 unit/mL of HIV-RT (Worthington Biochemical Corp., Freehold, N.J.) in a total volume of 300 μL. For each assay, the reaction mixture containing 8× buffer, double distilled H2O, ^3HTTP, template-primer and HIV-RT was pre-mixed in a 15-mL sterile tube in quantities required for the particular experiment. After adding the enzyme, the reaction mixture was mixed and kept on ice. The inhibitors, either AZT(Moravek Biochemicals, Brea, Calif.), analogs or both were added to appropriate wells in a 24 well microtiter plate and ddH2O was added to each well to bring the volume of all test wells to 100 μL. Two hundred μL of the chilled reaction mixture was then added to each of the test wells, mixed, and incubated for 1 hr at 37° C. Several control wells with no inhibitors were included on each test plate. After stopping the reactions with 25 μL 0.1 M EDTA, triplicate samples of 15 μL from each test well were spotted on DE81 ion exchange filter paper squares (Whatman Paper, Maidstone, England). After drying, each filter was washed for 10 minutes three times with 5% TCA-NHPO4, three times with 0.6M NaCl-[…] Na Citrate, one time with ddH2O and one time with 95% ethanol. After drying the individual filter papers were added to 5 mL Scintiverse E (Fisher Scientific, Chicago, Ill.) scintillation fluid and the amount of 3H-TTP uptake measured as counts per minute on a Beckman liquid scintillation counter. […] The results were then analyzed using Calcusyn, a windows software program for dose effect analysis designed by T. -C. Chou and M. P. Hayball and published by Biosoft® (UK).

[4] = normal murine spleen cells stimulated with concanavalin A
[5] = human lymphocytic cell lines CCRF-CEM and H-9, pooled data
[6] = Mean IC50 ± SEM (no. of expts), 50% inhibition of HIV RT activity toward 1 unit of enzyme
[7] = 50% inhibition of HIV RT activity toward 1 unit of enzyme, read-out: Mean IC50 ± SEM (no. of expts)

COC(=O)c1nc(-c2ccc3c(n2)C(=O)C(NC(C)=O)=CC3=O)c2[nH]c3ccccc3c2c1C [Compound 11, 7-acetyllavendamycin methyl ester]
CC50 at 48 h [1, 4]: 62 ± 5 µM
CC50 at 48 h [2, 5]: 31 ± 2 µM
IC50 [3, 6]: 15.1 ± 5.9 µM

CCCCOC(=O)c1cc2c([nH]c3ccccc32)c(-c2ccc3c(n2)C(=O)C(NC(=O)CCC)=CC3=O)n1 [Compound 12, 7-N-n-Butyryidemethyllavendamycin n-Butyl Ester]
CC50 at 48 h [1]: 81 ± 17 µM
CC50 at 48 h [2]: 50 ± 15 µM
IC50 [3, 7]: 5.8 ± 1.5 µM
IC50 ([3]; read-out: IC50 against HIV-RT): < 8 µM

CC(=O)NC1=CC(=O)c2ccc(-c3nc(C(N)=O)cc4c3[nH]c3ccccc34)nc2C1=O [Compound 16, 7-N-Acetyldemethyllavendamycin Amide]
CC50 at 48 h [1, 4]: 50 ± 7 µM
CC50 at 48 h [2, 5]: 95 ± 45 µM
IC50 [3, 6]: 12.7 ± 5.2 µM

CC(=O)NC1=CC(=O)c2ccc(-c3nc(C(=O)O)cc4c3[nH]c3ccccc34)nc2C1=O [Compound 18, 7-N-Acetyldemethyllavendamycin]
CC50 at 48 h [1, 4]: 47 ± 8.5 µM
CC50 at 48 h [2, 5]: 81 ± 35 µM
IC50 [3, 6]: 13.3 ± 4.4 µM

CC(=O)NC1=CC(=O)c2ccc(-c3nc(C(=O)OCCOP(=O)(O)O)cc4c3[nH]c3ccccc34)nc2C1=O [Compound 19]
CC50 at 48 h [1, 4]: 29 ± 5 µM
CC50 at 48 h [2, 5]: 27 ± 3 µM
inhibition at 15 µM ([3]; 15 μM): > 92%
IC50 ([3]; IC50 against HIV-RT): < 8 µM and 3 µM

CCCCCCCCOC(=O)c1cc2c([nH]c3ccccc32)c(-c2ccc3c(n2)C(=O)C(N)=CC3=O)n1 [Compound 20, Demethyllavendamycin n-Octyl Ester]
CC50 at 48 h [1]: 48 ± 10 µM
CC50 at 48 h [2]: 47 ± 14 µM
IC50 [3, 7]: 7.1 ± 2.7 µM
IC50 ([3]; read-out: IC50 against HIV-RT): < 8 µM
